The record followed here is US20120053128A1, “Method of inhibiting angiogenesis” (XAVIER UNIVERSITY, priority 2010, published 2012).

Read-outs that look alike come from different tables or passages of the source. Where no end group is shown, it is not given here.

One data set concerns Erk1/2. Briefly: Western blot, VEGF-induced phosphorylation of Erk1/2 in HUVECs. Format: cell-based, human. To be noted: apoEdp about 6 to about 50 μM for 1 h, VEGF 10 ng/mL ten minutes, concentration dependent. How it is done: (§1) The mechanism by which apoEdp inhibits angiogenesis and tumor growth was evaluated using Western Blot Analysis.
(§2) Confluent HUVECs were grown in EBM-2 containing 1% FBS for twenty-four hours. The medium was then replaced with 1% FBS media in the presence or absence of apoEdp in the range of about 6 μM to about 50 μM. The cells were allowed to grow for one hour; then VEGF was added at a concentration of 10 ng/mL. The cells were then incubated for ten minutes to detect the phosphorylated forms of angiogenic signaling molecules.
(§3) The cells were lysed, quantified for protein concentration, and separated on 4% to 20% pre-cast SDS-PAGE gels. Western blots were then performed of the control cell lysates and the apoEdp treated cell lysates. The western blots were performed with antibodies against the phosphorylated and non-phosphorylated (control) forms of Flk-1, c-Src, FAK, Erk1/2, Akt and eNOS. (Santa Cruz Biotechnology, Santa Cruz, Calif.).
On the technique in general: Immunoblotting shows a protein as a band on a membrane.

For data set [1], the system named is MDA-MB-231 human breast cancer cells xenograft. In kind it is in vivo. The conditions noted are these: nude mice, about 40 mg/kg/day intralesionally for three consecutive days, versus PBS. As for the experimental part: The effect of apoEdp on tumor growth in vivo was observed by testing its inhibitory effect on xenograft tumor growth post-injection in nude mice.
The test subjects were female nu/nu mice, aged 8-12 weeks, weighing about 20 g. (Charles River Laboratories, Harlan, Indianapolis, Ind.) The mice were weighed, coded, and divided into experimental groups at random. The mice were subcutaneously injected with about 3×10^6 MDA-MB-231 human breast cancer cells in 100 μL PBS. The cells were injected into the right sides of the dorsal area of the test subjects. The tumor size was allowed to reach about 100 mm^3 which took about ten days.
Following injection of the tumor cells, the subjects were given injections for three consecutive days. About 40 mg/kg/day of apoEdp was injected intralesionally into the test subjects, and about […] of sterile PBS was injected intralesionally into the control subjects.
In order to evaluate tumor growth, tumor volume was determined every seven days by measuring the tumor with a digital caliper and calculating tumor volume. Volume was calculated using the formula, V=A×B^2×0.52, where A=longest diameter of the tumor, and B=the shortest diameter of the tumor.

A further data set relates to FAK. In words: Western blot, VEGF-induced phosphorylation of FAK in HUVECs. Format: cell-based, human. To be noted: apoEdp about 6 to about 50 μM for 1 h, VEGF 10 ng/mL ten minutes, concentration dependent. As for the experimental part: as §1, §2, §3
For a further data set, the system named is c-Src. Briefly: Western blot, VEGF-induced phosphorylation of c-Src in HUVECs. In kind it is cell-based, human. The conditions noted are these: apoEdp about 6 to about 50 μM for 1 h, VEGF 10 ng/mL ten minutes, concentration dependent. How it is done:
as §1, §2, §3

Another data set has as its system Akt. Briefly: Western blot, VEGF-induced phosphorylation of Akt in HUVECs. Format: cell-based, human. The conditions noted are these: apoEdp about 6 to about 50 μM for 1 h, VEGF 10 ng/mL ten minutes, concentration dependent. How it is done: as §1, §2, §3
The conditions of data set [2]: human, human umbilical vein endothelial cells (HUVECs).
Method: The HUVECs, as described above, were seeded in 96-well plates at about 10,000 cells per well. The next day, the cells were starved for 18 hours in EBM-2+1% FBS without any growth supplement. The HUVECs were then incubated with apoEdp in various concentrations in the range of about 6 μM to about 300 μM. An hour later, 50 ng/mL of vascular endothelial growth factor (VEGF) was introduced. The cells were incubated for two days, and cell numbers were determined using the CellTiter96 AQuous One Solution cell proliferation kit. (Promega, Madison, Wis.)
The next data set concerns eNOS. In words: Western blot, VEGF-induced phosphorylation of eNOS in HUVECs. In kind it is cell-based, human. The conditions noted are these: apoEdp about 6 to about 50 μM for 1 h, VEGF 10 ng/mL ten minutes, concentration dependent. As for the experimental part: as §1, §2, §3
The next data set concerns Flk-1. Briefly: Western blot, VEGF-induced phosphorylation of Flk-1 in HUVECs. Format: cell-based, human. To be noted: apoEdp about 6 to about 50 μM for 1 h, VEGF 10 ng/mL ten minutes, concentration dependent. As for the experimental part: as §1, §2, §3
Data set [3] has as its system VEGF-induced angiogenesis. In words: Rabbit corneal micropocket assay of VEGF-induced angiogenesis. Format: in vivo, New Zealand White Rabbits. To be noted: rabbit eye, 1% apoEdp eye drops 50 μL topically five times per day for five days, versus saline drops. As for the experimental part:
The effect of apoEdp on angiogenesis in vivo was observed by testing its inhibitory effect on VEGF-induced angiogenesis in a corneal micropocket assay of a rabbit eye model. A corneal micropocket was created with a modified von Graefe cataract knife in each eye of several 2-3 pound New Zealand White Rabbits. A micropellet of 500 μm by 500 μm was prepared which contained 0.4 g of Compritol 888 ATO (Gattefosse) combined with 0.1 g of Squalane oil (Sigma Aldrich) and 20 mg/mL L-α-Phosphatidylcholine. The 20 mg/mL L-α-Phosphatidylcholine contained either saline for the control subjects or 160 ng of VEGF for the test subjects. The right eye of each test subject was implanted with a VEGF-containing pellet and the left eye of each test subject was implanted with a saline-containing pellet. Each of the pellets was positioned about 2 mm from the corneal limbus. […] The area of neovascular response, vessel length and clock hours of new blood vessel formation of each group were all calculated according to the formula, Area (mm^2)=C/12×3.1416[r^2−(r−L)^2] where, C=the number of clock hours at the limbus involved in the neovascular response, L=the length of the longest neovascular pedicle from the limbus onto the anterior cornea, and r=the radius of the cornea.

Data set [4] relates to MDA-MB-231 human breast cancer cells. Briefly: MDA-MB-231 cell viability (CellTiter 96 AQuous One). Format: cell-based. To be noted: MDA-MB-231 cells, apoEdp up to 300 μM. How it is done: (§4) To determine whether apoEdp affects cell survival, cell viability of human umbilical vein endothelial cells (HUVECs) and MDA-MB-231 human breast cancer cells was determined by using CellTiter 96® AQuous One solution cell proliferation kit (Promega, Madison, Wis.).
(§5) HUVECs were obtained from Lonza (Walkersville, Md.) and were maintained in endothelial cell basal medium (EBM-2) (Lonza, Walkersville, Md.) supplemented with 10% fetal bovine serum (FBS) and growth factors. (bullet kit, Lonza, Walkersville, Md.) HUVECs were used between passages 2-6. Human Breast Cancer cells MDA-MB-231 were obtained from the American Type Tissue Collection and cultured in Dulbecco's Modified Eagle's medium supplemented with 10% fetal bovine serum, 0.1 mg/mL streptomycin and 25 U/mL penicillin.
(§6) The MDA-MB-231 cells were in 96-well plates at about 5,000 cells per well. The MDA-MB-231 cells were then allowed to adhere to the plate with apoEdp in various concentrations in the range of about 6 μM to about 300 μM. The cells were incubated for two days, and cell numbers were determined using the CellTiter 96® AQuous One Solution cell proliferation kit. (Promega, Madison, Wis.)

Test in data set [5]: as above
In kind it is cell-based, human. To be noted: human, MDA-MB-231 human breast cancer cells; MDA-MB-231 cells, incubated two days, apoEdp about 6 to about 300 μM; read-out: 50% cytotoxic dose. As for the experimental part:
as §4, §5, §6

Turning to LRKLRKRLLLRKLRKRLL [apoEdp], in the data set with Erk1/2, the “VEGF-induced phosphorylation of Erk1/2” value is given as “significantly inhibited”. In addition, the “tumor growth (tumor volume)” value in data set [1] was “significantly inhibited”. For the same sequence, in the data set on FAK, the “VEGF-induced phosphorylation of FAK” value was “significantly inhibited”. For the same sequence, in the data set with c-Src, the “VEGF-induced phosphorylation of c-Src” value is “significantly inhibited”. The “VEGF-induced phosphorylation of Akt” value in the data set on Akt is listed as “significantly inhibited”. The CC50 at 48 h in [2] was about 103 µM; in data set [5] it was over 300 µM. For the same sequence, the “VEGF-induced phosphorylation of eNOS” value with eNOS is “significantly inhibited”. Moreover, the “VEGF-induced phosphorylation of Flk-1” value with Flk-1 is “significantly inhibited”. Also, the “VEGF-induced angiogenesis (area of neovascular response)” value in data set [3] is recorded as “significantly inhibited”. Further, the “effect on cell viability” value in data set [4] is listed as “no effect on cell viability”.
